How the values were obtained:
[1] = cited from earlier work
[2] = test system: HT-29 xenograft; assay: In vivo therapeutic efficacy in tumor bearing animal model; design: species or system NOD/SCID mice; conditions: oral, 10 mg/kg DOX, over 12 days
Description: In vivo therapeutic efficacy in a tumor bearing animal model. The in vivo anticancer efficacy of free DOX, the cationic DOX-loaded liposome without a bile acid coating (“DOX-liposome”), and the anionic DOX-loaded liposome with the CS-TCA coating (“DL/CS-TCA”) was evaluated in a xenograft mouse model. HT-29 cells (1×10^7 cells per mouse) were subcutaneously injected into the back of NOD/SCID mice (n=3). When the tumor size reached approximately 100-150 mm^3, each mouse received an oral administration of PBS, 10 mg/kg free DOX, 10 mg/kg DOX in the DOX-liposome composition, or 10 mg/kg DOX in the DL/CS-TCA composition, once every two days. Tumor size and body weight were measured every 2 days. Tumor volumes were measured with a digital caliper and the tumor volume was calculated using the equation shown below. Tumor volume=(Length×width^2)/2

[3] = test system: HepG2 xenograft mouse model; assay: In vivo efficacy in tumor bearing animal model
Description: In vivo efficacy in a tumor bearing animal model. The in vivo anticancer efficacy of free DOX and the DDP/H-TCA composition was evaluated in a HepG2 xenograft mouse model. Animals which were treated with free DOX delivered via both orally and via IV administration were used as a control group, and DDP/H-TCA compositions were administered orally every 3 days at a dose of 4 mg DOX/kg, up to 18 days.
HepG2 cells (5×10^6 cells/mL) in 100 μL PBS were injected subcutaneously into the back of each mouse. When the tumor size reached approximately 100-150 mm^3, each mouse received an oral administration of PBS, 4 mg/kg DOX, or 4 mg/kg DOX in a DDP/H-TCA composition, once every three days. In addition, an equal amount of doxorubicin was intravenously (IV) administered in a control group. Tumors were measured every three days with a digital caliper and the tumor volume was calculated using the equation shown below.
To achieve a relatively high concentration, the lyophilized powder of DDP/H-TCA particles was reconstituted in DI water just prior to in vivo administration. First, the tumor growth inhibition efficacy of bile acid-coated DOX-loaded particles was investigated in a mouse xenograft model. Doxorubicin (DOX) at a dose of 4 mg/kg, or an equivalent amount of DOX formulated as DDP/H-TCA particles, was prepared and delivered via IV or oral administration every 3 days up to 18 days to monitor tumor progression. DOX-loaded particles without a bile acid (i.e. no TCA) were also tested as a non-targeted control formulation to evaluate the tumor inhibition efficacy of the TCA. Because tumors in the PBS control group were quite aggressive and reached over 10% of the animals' body weight around day 18, all treatments were terminated and all mice were sacrificed at day 18.

[4] = cited from earlier work; remark: listed apart in the source
[5] = test system: HepG2 cells; assay: In vitro cytotoxicity of polymers and DOX-loaded particles, MTT assay; type: cell-based, human; conditions: 0.01-100 ug/mL, 24, 48 and 72 hr
Description: In vitro cytotoxicity of DOX-loaded particles. To evaluate the cytotoxicity of the polymers and DOX-loaded particles, samples were transfected in a dose-dependent manner and evaluated by an MTT-based cell viability assay using HepG2 cells. Cell Culture: HepG2 cells (a human hepatoma cell line) were cultured in DMEM supplemented with 10% FBS and D-glucose (4.5 g/L). Cells were grown and maintained under humidified air containing 5% CO2 at 37° C. Cell Viability: a MTT assay was used to evaluate the cell viability of bile acid-linked polymers and DOX-loaded particles. HepG2 cells were seeded into a 96-well plate at a cell density of 5×10^3 cells/well in 100 μL media. […] MTT (10 μL; 5 mg/mL) solution was then added to the wells and incubated for 4 hr. All remaining media was aspirated, and DMSO (100 μL) was added to dissolve the formazan crystals produced from living cells with 10 min incubation at 37° C. The absorbance of the cells was measured at 570 nm and their cell viability was calculated.

[6] = DOX biodistribution in tumor-bearing mice (DOX fluorescence); type: in vivo, HepG2 tumor-bearing NOD/SCID mice; conditions: IV injection, 4 hr, versus orally administered groups
Description: Biodistribution. A biodistribution study was performed in HepG2 tumor-bearing NOD/SCID mice. The major organs and intestinal tract of each mouse were collected 4 hr after administration of the formulations. The liver, kidney, heart, stomach, small intestine including duodenum, jejunum, ileum, and tumor of each mouse was collected and suspended in 70% ethanol with 0.3 N HCl. The samples were then homogenized to extract the doxorubicin, and then the samples were refrigerated for 24 hr and centrifuged to collect supernatant. For analysis, 200 μL of the supernatant was loaded in a black opaque plate and DOX fluorescence was measured using a plate reader, where the wavelengths of excitation and emission were 470 and 590 nm, respectively.

[7] = test system: caco-2 cells; assay: In vitro cellular uptake of insulin-Ce6 liposomes; type: cell-based, Human; conditions: insulin-Ce6 10 ug/mL, 4 hr
Description: In vitro cellular uptake. Human epithelial colorectal adenocarcinoma cells (caco-2 cells) were maintained in Dulbeco's Modified Eagle's Medium (DMEM) with 1% penicillin-streptomycin and 10% FBS in a humidified standard incubator at 37° C. with a 5% CO2 atmosphere. Prior to testing, cells (1×10^5 cells/mL) that were grown as a monolayer were harvested via trypsinization using a 0.25% (wt/vol) trypsin/0.03% (wt/vol) EDTA solution. Caco-2 cells suspended in DMEM were seeded onto each well plate and cultured for 24 hours prior to the in vitro cell testing. The cellular uptake of the liposomes (provided in an amount equivalent to an insulin-Ce6 concentration of 10 ug/mL, treated for 4 hr) was monitored by FACSCalibur Flow Cytometer (Becton Dickinson, USA). In addition, the localization of the liposome was examined by fluorescence of the insulin-Ce6 loaded liposome using a confocal laser scanning microscope.

| Molecule | oral bioavailability [1] | change in tumor volume [2] | relative body weight [2] | body weight ([3]; 4 mg DOX/kg every 3 days up to 18 days) | inhibition of tumor growth ([3]; IV, 4 mg/kg every 3 days, up to 18 days) | increase in tumor volume ([3]; oral, 4 mg DOX/kg every 3 days, up to 18 days) | pKa [4] | cytotoxicity (cell viability) [5] | DOX concentration in heart and liver tissues [6] | labeled insulin present in cells [7] |
| --- | --- | --- | --- | --- | --- | --- | --- | --- | --- | --- |
| COc1cccc2c1C(=O)c1c(O)c3c(c(O)c1C2=O)C[C@@](O)(C(=O)CO)C[C@@H]3O[C@H]1C[C@H](N)[C@H](O)[C@H](C)O1 [DOX, doxorubicin] | about 5% | not statistically better at reducing tumor volume than the buffer | decrease slightly | no significant weight loss | greatest inhibition of tumor growth | ~1400% | 7.2-8.0 | highest dose-dependent cytotoxicity | higher concentration of DOX was seen in the heart and liver tissues |  |
| free insulin: Ce6-labeled insulin given without liposomes |  |  |  |  |  |  |  |  |  | relatively little labeled insulin present |
